Patent publication US20250084097A1, “MACROCYCLIC AMIDE COMPOUNDS AND APPLICATION THEREOF” (Medshine Discovery Inc., priority 2021, published 2025)

What was measured:
CYP2C19 = target: T1, CYP2C19 (Homo sapiens, UniProt P33261); test: Cytochrome P450 isoenzyme inhibition, human liver microsomes; assay type: in vitro ADME; conditions: read-out: Cytochrome P450 isoenzyme inhibitory concentration CYP2C19
T1 construct: from tissue; host or cells: human liver microsomes
Method: (§1) The purpose of this study was to determine the inhibitory effect of test compounds on the activity of human liver microsomal cytochrome P450 isoenzymes (CYP1A2, CYP2C9, CYP2C19, CYP2D6 and CYP3A4).
(§2) Working solutions (100×final concentration) with concentrations of 5.00, 1.50, 0.500, 0.150, 0.0500, 0.0150, and 0.00500 mM were prepared by gradient dilution of the test compound (10.0 mM), while working solutions of each positive inhibitor and its specific substrate mixtures of P450 isozymes (CYP1A2, CYP2C9, CYP2C19, CYP2D6, and CYP3A4) were prepared; human liver microsomes stored in a refrigerator below −60° C. were thawed on ice; after all the human liver microsomes were thawed, the human liver microsomes were diluted with Potassium phosphate buffer (PB) to prepare a certain concentration of working solution (0.253 mg/ml).
(§3) First, 20.0 μL of the substrate mixture was added to a reaction plate (20.0 μL of PB was added to the Blank well), then 158 μL of human liver microsomal working solution was added to the reaction plate, and the reaction plate was placed on ice for use; at this time, 2.00 μL of each concentration of the test compound (N=1) and specific inhibitor (N=2) were added to the corresponding wells, and to the group without inhibitor (test compound or positive inhibitor) was added the corresponding organic solvent as control samples (1:1 DMSO:MeOH for the control sample of the test compound, and 1:9 DMSO:MeOH for all the positive control samples); after pre-incubation in a water bath at 37° C. for 10 min, 20.0 μL of cofactor (NADPH) solution was added to the reaction plate, and the reaction plate was incubated in a water bath at 37° C. for 10 min; The reaction was terminated by adding 400 μL of pre-cooled acetonitrile solution (containing 200 ng/mL Tolbutamide and Labetalol internal standard); the reaction plate was shaken on a shaker for 10 min; then centrifuged at 4000 rpm at 4° C. for 20 min; 200 μL of the supernatant was added to 100 μL of water to dilute the samples; and the plate was sealed, shaken for 10 min to mix well, and then analyzed by LC/MS/MS.
(§4) The rate of production of metabolites of each probe substrate was used to reflect the activity of each CYP isozyme. The activity of each isozyme in the solvent control incubation system without test article or positive inhibitor was set to be 100%, and the rate of production of metabolites of the probe substrate with different concentrations of test article or positive inhibitor was divided by the rate of production of metabolites of the solvent control samples, and then multiplied by 100% as the percentage of residual activity of each isozyme. The IC50 values of the test article and each positive inhibitor were calculated by nonlinear regression analysis using three or four parameters in XL fit software with the percentage of residual activity as the vertical coordinate and the inhibitor concentration as the horizontal coordinate. The IC50 values were labeled as “>50 μM” when the IC50 fitted by XL fit software was greater than the highest administered concentration (50 μM) or when the IC50 could not be fitted.

CYP2C9 = target: T2, CYP2C9 (Homo sapiens, UniProt P11712); test: as above; assay type: in vitro ADME; conditions: read-out: Cytochrome P450 isoenzyme inhibitory concentration CYP2C9
T2 construct: from tissue; host or cells: human liver microsomes
T2 sequence (P11712 whole entry): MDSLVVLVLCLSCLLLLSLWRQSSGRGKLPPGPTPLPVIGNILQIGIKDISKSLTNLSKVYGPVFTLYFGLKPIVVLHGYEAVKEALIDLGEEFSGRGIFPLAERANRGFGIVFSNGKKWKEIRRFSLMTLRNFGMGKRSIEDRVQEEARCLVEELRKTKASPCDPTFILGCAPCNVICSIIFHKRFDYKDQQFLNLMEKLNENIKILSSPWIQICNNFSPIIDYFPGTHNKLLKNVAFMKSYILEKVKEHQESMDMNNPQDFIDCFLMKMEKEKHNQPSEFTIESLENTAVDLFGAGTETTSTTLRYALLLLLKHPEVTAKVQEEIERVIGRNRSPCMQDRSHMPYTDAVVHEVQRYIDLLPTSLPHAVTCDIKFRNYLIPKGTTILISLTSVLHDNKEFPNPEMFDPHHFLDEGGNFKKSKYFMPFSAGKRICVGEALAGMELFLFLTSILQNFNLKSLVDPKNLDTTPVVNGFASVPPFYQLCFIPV
Method: as §1, §2, §3, §4

[1] = tested on: Ba/F3-FL-EGFR (del19-T790M-C797S) cells; test: In vivo efficacy, Ba/F3-FL-EGFR-Del19-T790M-C797S cell homograft tumor model; design: species or system mouse; conditions: for Relative tumor proliferation rate T/C / Tumor growth inhibition rate TGI: Day 10
Method: Ba/F3-FL-EGFR (del19-T790M-C797S) cell line was cultured in RPMI1640 medium (Viva Cell)+10% fetal bovine serum (Viva Cell)+1% double-antibody (Penicillin Streptomycin solution, Gibco, USA) at 37° C., 5% CO2, and passaged 2-3 times a week. When the cell saturation was 80%-90%, cells were collected, counted and inoculated. When the cells in the logarithmic growth phase reached the required number for the assay, the cells were collected, and centrifuged at 1000 rpm for 5 min to remove the supernatant. The cells were resuspended with medium, and counted using a cell counter. According to the counting results, the original solution was diluted into a cell suspension with a concentration of 1*10^7 viable cells/mL, and the cell viability was 98.77%, P17 generation. The diluted cell suspension and matrix gel were diluted in a 1:1 ratio. After mixing well and placing on ice, the suspension was aspirated with a 1 mL sterile insulin syringe, and each mouse was subcutaneously inoculated with 0.2 mL of cell suspension in the right axilla. That is, each mouse was inoculated with 1*10^6 Ba/F3-FL-EGFR (del19-T790M-C797S) cells.
After the inoculation was completed, the tumor growth status was observed daily. When the average tumor volume reached approximately 100˜150 mm^3, the mice were randomly divided into groups according to tumor volume.
Dosage according to mouse body weight: 10 μL/g. If the body weight decreases by more than 20%, the dosing regimen was adjusted accordingly.
The formulation and any modifications of this assay protocol were evaluated and approved by the Laboratory Animal Welfare Ethics Committee of the testing institution. The health status and death of animals were checked every day. Routine inspections included tumor growth, activity, diet, body weight, eyes, hair and other abnormal behaviors of animals. Tumor volume and body weight were measured three times a week (Monday, Wednesday and Friday). The tumor volume was measured with a vernier caliper, and the formula was TV=0.5 a×b^2, where a is the long diameter of a tumor and b is the short diameter of a tumor.
Statistical analysis included the mean (Mean) and standard error (SEM) of tumor volume at each time point for each group. Statistical analysis was performed to evaluate differences between groups based on the data on the 10th day after administration. One way ANOVA post hoc test and Tamhane test were used to compare whether there was a significant difference in tumor volume between the treatment group and the control group. p<0.05 meaned a significant difference. Drug efficacy evaluation indicators included tumor volume and tumor weight to examine whether tumor growth was delayed, inhibited or cured. The anti-tumor efficacy of compounds was evaluated using the relative tumor proliferation rate T/C (%) or the tumor growth inhibition rate TGI (%). […] In principle, the evaluation criteria were: T/C (%) >40% or TGI (%) <40% represents ineffective; T/C (%)≤40% and p<0.05, or TGI (%)≥40% and p<0.05 represents effective.

[2] = 10 mg/kg/bid, day 0 after administration
[3] = 10 mg/kg/bid, day 3 after administration
[4] = 10 mg/kg/bid, day 5 after administration
[5] = 10 mg/kg/bid, day 7 after administration
[6] = 10 mg/kg/bid, day 10 after administration
[7] = 25 mg/kg/bid, day 0 after administration
[8] = 25 mg/kg/bid, day 3 after administration
[9] = 25 mg/kg/bid, day 5 after administration
[10] = 25 mg/kg/bid, day 7 after administration
[11] = 25 mg/kg/bid, day 10 after administration

T1 sequence (P33261 whole entry): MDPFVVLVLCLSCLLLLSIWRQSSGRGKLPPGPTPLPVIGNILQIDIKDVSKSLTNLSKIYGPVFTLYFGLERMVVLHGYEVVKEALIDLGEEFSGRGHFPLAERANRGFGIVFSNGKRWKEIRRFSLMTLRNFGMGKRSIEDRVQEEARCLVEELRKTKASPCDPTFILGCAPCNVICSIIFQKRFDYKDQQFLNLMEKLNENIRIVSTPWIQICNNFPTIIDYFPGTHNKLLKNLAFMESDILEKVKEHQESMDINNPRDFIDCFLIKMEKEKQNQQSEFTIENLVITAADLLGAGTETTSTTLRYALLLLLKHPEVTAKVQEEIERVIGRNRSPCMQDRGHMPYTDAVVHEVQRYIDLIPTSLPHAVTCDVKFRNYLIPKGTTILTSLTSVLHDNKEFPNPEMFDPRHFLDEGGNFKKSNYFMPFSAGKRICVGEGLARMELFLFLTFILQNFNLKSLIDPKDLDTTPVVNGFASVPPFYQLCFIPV

For Cc1cc2cc(n1)-c1cnn(C)c1OC[C@H]1CC[C@H](C1)CN1/C(=N/C2=O)Nc2ccc(N=S(C)(C)=O)cc21 (single isomer, unassigned) [WX-027A], the IC50 (CYP2C19) was 9.8 µM, the IC50 (CYP2C9) was 14 µM and the “Relative tumor proliferation rate T/C” value ([1]; 10 mg/kg/bid) was 14%. For the same molecule, the “Tumor growth inhibition rate TGI” value ([1]; 10 mg/kg/bid) was 94%, the Average tumor volume [1, 2] was 113 mm^3 and the Average tumor volume [1, 3] was 123 mm^3. The Average tumor volume [1, 4] was 111 mm^3, the Average tumor volume [1, 5] was 183 mm^3 and the Average tumor volume [1, 6] was 179 mm^3. The “Relative tumor proliferation rate T/C” value ([1]; 25 mg/kg/bid) was 7%, the “Tumor growth inhibition rate TGI” value ([1]; 25 mg/kg/bid) was 102% and the Average tumor volume [1, 7] was 112 mm^3. For the same molecule, the Average tumor volume [1, 8] was 105 mm^3, the Average tumor volume [1, 9] was 96 mm^3 and the Average tumor volume [1, 10] was 108 mm^3. For the same molecule, the Average tumor volume [1, 11] was 86 mm^3.
Cc1cc2cc(n1)-c1cnn(C)c1OCCC[C@@H](C)CN1/C(=N/C2=O)Nc2ccc(N=S(C)(C)=O)c(Cl)c21 [WX-019] was tested, and the IC50 (CYP2C19) was 3.4 µM, the IC50 (CYP2C9) was 31 µM and the “Relative tumor proliferation rate T/C” value ([1]; 10 mg/kg/bid) was 8%. For the same molecule, the “Tumor growth inhibition rate TGI” value ([1]; 10 mg/kg/bid) was 101%, the Average tumor volume [1, 2] was 113 mm^3 and the Average tumor volume [1, 3] was 133 mm^3. The Average tumor volume [1, 4] was 140 mm^3, the Average tumor volume [1, 5] was 148 mm^3 and the Average tumor volume [1, 6] was 106 mm^3. For the same molecule, the “Relative tumor proliferation rate T/C” value ([1]; 25 mg/kg/bid) was 7%, the “Tumor growth inhibition rate TGI” value ([1]; 25 mg/kg/bid) was 103% and the Average tumor volume [1, 7] was 113 mm^3. The Average tumor volume [1, 8] was 120 mm^3, the Average tumor volume [1, 9] was 94 mm^3 and the Average tumor volume [1, 10] was 130 mm^3. For the same molecule, the Average tumor volume [1, 11] was 82 mm^3.
